Test results from patent US5789434A, “Derivatives of substituted 4-biarylbutyric acid as matrix metalloprotease inhibitors” (priority 1995, dated 1998).
Counter-ions that a name gives are not always drawn. Like-named read-outs stand apart in the source and are kept apart here.

What was measured:
[1] = target: T1, MMP-9 (Homo sapiens, UniProt P14780); assay: Thiopeptilide MMP-9 Inhibition Assay; assay type: biochemical; conditions: for inhibition at 5 µM: read-out: MMP-9: Thiopep. % inhibition; for IC50: pH 6.5, x (n) = average of n determinations, read-out: MMP-9: Thiopep. IC50
T1 construct: from tissue; host or cells: human polymorphonuclear leukocytes (PMN) from whole blood (New York Blood Center), PMA-stimulated supernatant
T1 sequence (P14780 107-707 limits assumed): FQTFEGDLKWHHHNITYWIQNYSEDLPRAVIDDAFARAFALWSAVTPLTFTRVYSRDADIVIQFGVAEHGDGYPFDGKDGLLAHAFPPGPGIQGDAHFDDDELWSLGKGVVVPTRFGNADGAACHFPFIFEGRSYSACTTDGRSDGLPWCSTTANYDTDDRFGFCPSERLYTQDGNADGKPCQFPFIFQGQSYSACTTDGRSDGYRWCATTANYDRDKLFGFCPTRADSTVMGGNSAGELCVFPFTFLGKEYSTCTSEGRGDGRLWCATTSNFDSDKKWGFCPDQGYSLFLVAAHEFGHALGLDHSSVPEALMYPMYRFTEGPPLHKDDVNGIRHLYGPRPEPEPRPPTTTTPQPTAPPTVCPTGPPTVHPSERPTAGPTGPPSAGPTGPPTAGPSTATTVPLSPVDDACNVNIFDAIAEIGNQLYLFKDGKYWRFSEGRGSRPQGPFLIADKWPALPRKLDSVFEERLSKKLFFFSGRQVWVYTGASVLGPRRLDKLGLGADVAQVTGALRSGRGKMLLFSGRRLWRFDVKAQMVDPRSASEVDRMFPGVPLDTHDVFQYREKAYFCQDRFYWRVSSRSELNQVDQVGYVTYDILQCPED

[2] = target: T2, MMP-3 (Homo sapiens, UniProt P08254); assay: Primary Thiopeptilide MMP-3 Inhibition Assay; assay type: biochemical; conditions: for IC50: pH 6.5, 13 nM stromelysin, x (n) = average of n determinations, read-out: MMP-3 Thiopep. IC50; for inhibition at 5 µM: read-out: MMP-3 Thiopep. % inhibition
T2 construct: Truncated Prostromelysin-257 was expressed in a soluble form in E.coli; made in house; host or cells: E. coli
T2 sequence (P08254 100-274 limits assumed): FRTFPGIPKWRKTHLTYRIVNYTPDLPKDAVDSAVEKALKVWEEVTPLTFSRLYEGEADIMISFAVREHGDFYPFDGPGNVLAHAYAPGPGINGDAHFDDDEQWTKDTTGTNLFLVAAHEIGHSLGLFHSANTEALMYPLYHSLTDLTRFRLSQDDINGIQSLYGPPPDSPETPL

Row | SMILES | inhibition at 5 µM ([1]; at 5 μM) | IC50 [2] | IC50 [1] | inhibition at 5 µM [2] | inhibition at 5 µM [1]
1 | C#CCC(CC(=O)c1ccc(-c2ccc(Cl)cc2)cc1)C(=O)O (stereo not drawn) [Example 121, [1,1'-Biphenyl]-4-butanoic acid, 4'-chloro-γ-oxo-α-2-propynyl-] | 45% | 1000 nM | – | – | –
2 | NCc1ccc(-c2ccc(C(=O)CC(CCCc3ccccc3)C(=O)O)cc2)cc1 (stereo not drawn) [Example 59, [1,1'-Biphenyl]-4-butanoic acid, 4'-(aminomethyl)γ-oxo-α-(3-phenylpropyl)-] | – | – | 2000 nM | 33% | –
3 | COc1cccc(SCC(CC(=O)c2ccc(-c3ccc(Cl)cc3)cc2)C(=O)O)c1 (stereo not drawn) [Example 234, [1,1'-Biphenyl]-4-butanoic acid, 4'-chloro-α-[[(3-methoxyphenyl)thio]methyl]-γ-oxo-] | – | 144 nM | 600 nM | – | –
4 | CNC(=O)c1ccccc1SCC(CC(=O)c1ccc(-c2ccc(Cl)cc2)cc1)C(=O)O (stereo not drawn) [Example 250, [1,1'-Biphenyl]-4-butanoic acid, 4'-chloro-α-[[[2-[(methylamino)carbonyl]phenyl]thio]methyl]-γ-oxo-] | – | 125 nM | 800 nM | – | –
5 | Cc1ccccc1SCC(CC(=O)c1ccc(-c2ccc(Cl)cc2)cc1)C(=O)O (stereo not drawn) [Example 232, [1,1'-Biphenyl]-4-butanoic acid, 4'-chloro-α-[[(2-methylphenyl)thio]methyl]-γ-oxo-] | – | 150 nM | 200 nM | – | –
6 | O=C(CC(CCCc1ccccc1)c1nnn[nH]1)c1ccc(-c2ccc(Br)cc2)cc1 (stereo not drawn) [Example 344, 1-Hexanone, 1-(4'-bromo[1,1'-biphenyl]-4-yl)-6-phenyl-3-(1H-tetrazol-5-yl)-] | 14% | – | – | 11% | –
7 | N#Cc1ccc(-c2ccc(C(=O)CC(CCCc3ccccc3)C(=O)O)cc2)cc1 (stereo not drawn) [Example 56, [1,1'-Biphenyl]-4-butanoic acid, 4'-cyano-γ-oxo-α-(3-phenylpropyl)-] | – | 310 nM | 700 nM | – | –
8 | O=C(CC(CSc1ccccc1F)C(=O)O)c1ccc(-c2ccc(Cl)cc2)cc1 (stereo not drawn) [Example 218, [1,1'-Biphenyl]-4-butanoic acid, 4'-chloro-α-[[(2-fluorophenyl)thio]methyl]-γ-oxo-] | – | 170 nM | 435 nM | – | –
9 | C=C(CC(=O)O)C(=O)c1ccc(-c2ccc(Cl)cc2)cc1 [Example 32, [1,1'-Biphenyl]-4-butanoic acid, 4'-chloro-β-methylene-γ-oxo-, reference compound] | – | – | 6000 nM | 58% | –
10 | COc1ccc(SCC(CC(=O)c2ccc(-c3ccc(Cl)cc3)cc2)C(=O)O)cc1OC (stereo not drawn) [Example 215, [1,1'-Biphenyl]-4-butanoic acid, 4'-chloro-α-[[(3,4-dimethoxyphenyl)thio]methyl]-γ-oxo-] | – | 1300 nM | 1200 nM | – | –
11 | Cc1ccccc1S[C@H]1CC[C@@H](C(=O)c2ccc(-c3ccc(Cl)cc3)cc2)[C@H]1C(=O)O (relative stereo) [Example 305, Cyclopentanecarboxylic acid, 2-[(4'-chloro[1,1'-biphenyl]-4-yl)carbonyl]-5-[(2-methylphenyl)thio]-, (1α,2α,5α)-] | – | 470 nM | 1800 nM | – | –
12 | O=C(CC(NC(c1ccccc1)c1ccccc1)C(=O)O)c1ccc(-c2ccc(Cl)cc2)cc1 (stereo not drawn) [Example 260, [1,1'-Biphenyl]-4-butanoic acid, 4'-chloro-α-[(diphenylmethyl)amino]-γ-oxo-, hydrochloride] | – | 520 nM | – | – | 16%

The next lines start with results.

Row | inhibition at 5 µM ([1]; at 5 μM) | IC50 [2] | IC50 [1] | inhibition at 5 µM [2] | SMILES | inhibition at 5 µM [1]
13 | 53% | 490 nM | – | – | CC(C)SCC(CC(=O)c1ccc(-c2ccc(Cl)cc2)cc1)C(=O)O (stereo not drawn) [Example 239, [1,1'-Biphenyl]-4-butanoic acid, 4'-chloro-α-[[(1-methylethyl)thio]methyl]-γ-oxo-] | –
14 | – | 600 nM | 3000 nM | – | CC(C)(C)C(=O)SCC(CC(=O)O)C(=O)c1ccc(-c2ccc(Cl)cc2)cc1 (stereo not drawn) [Example 256, [1,1'-Biphenyl]-4-butanoic acid, 4'-chloro-β-[[(2,2-dimethyl-1-oxopropyl)thio]methyl]-γ-oxo-] | –
15 | 0% | – | – | 2% | CC(C)(CC(=O)c1ccc(-c2ccc(Cl)cc2)cc1)C(=O)O [Example 282, [1,1'-Biphenyl]-4-butanoic acid, 4'-chloro-α,α-dimethyl-γ-oxo-] | –
16 | 9% | – | – | 12% | O=C(CC(CCCc1ccccc1)C(=O)O)c1ccc(-c2cc(C(F)(F)F)cc(C(F)(F)F)c2)cc1 (stereo not drawn) [Example 79, [1,1'-Biphenyl]-4-butanoic acid, γ-oxo-α-(3-phenylpropyl)-3',5'-bis(trifluoromethyl)-] | –
17 | – | 690 nM | 2100 nM | – | O=C(O)CCC(=O)c1ccc(-c2ccc(Br)cc2)cc1 [Example 7, [1,1'-Biphenyl]-4-butanoic acid, 4'-bromo-γ-oxo-, reference compound] | –
18 | – | 490 nM | 1300 nM | – | O=C(CC(CSc1cccc(Cl)c1)C(=O)O)c1ccc(-c2ccc(Cl)cc2)cc1 (stereo not drawn) [Example 242, [1,1'-Biphenyl]-4-butanoic acid, 4'-chloro-α-[[(3-chlorophenyl)thio]methyl]-γ-oxo-] | –
19 | – | 76 nM | 37 nM | – | O=C(CC(CCCc1ccccc1)C(=O)O)c1ccc(-c2ccc(OCCCl)cc2)cc1 (stereo not drawn) [Example 52, [1,1'-Biphenyl]-4-butanoic acid, 4'-(2-chloroethoxy)-γ-oxo-α-(3-phenylpropyl)-] | –
20 | – | 360 nM | 800 nM | – | O=C(CC(CSc1cccc(Br)c1)C(=O)O)c1ccc(-c2ccc(Cl)cc2)cc1 (stereo not drawn) [Example 228, [1,1'-Biphenyl]-4-butanoic acid, α-[[(3-bromophenyl)thio]methyl]-4'-chloro-γ-oxo-] | –
21 | – | 1400 nM | 600 nM | – | O=C(O)CC1(CC(=O)c2ccc(-c3ccc(Cl)cc3)cc2)CCCC1 [Example 336, Cyclopentaneactic acid, 1-[2-(4'-chloro[1,1'-biphenyl]-4-yl)-2-oxoethyl]-] | –
22 | – | 213 nM | 215 nM | – | O=C(CC(CSc1ccc(O)cc1)C(=O)O)c1ccc(-c2ccc(Cl)cc2)cc1 (stereo not drawn) [Example 204, [1,1'-Biphenyl]-4-butanoic acid, 4'-chloro-α-[[(4-hydroxyphenyl)thio]methyl]-γ-oxo-] | –
23 | – | 227 nM | 215 nM | – | O=C(CC(CCOCc1ccccc1)C(=O)O)c1ccc(-c2ccc(Cl)cc2)cc1 (stereo not drawn) [Example 190, [1,1'-Biphenyl]-4-butanoic acid, 4'-chloro-γ-oxo-α-[2-(phenylmethoxy)ethyl]-] | –
24 | 21% | – | – | 0% | CC(=O)SCC(CC(=O)c1ccc(C)cc1)C(=O)O (stereo not drawn) [Example 253, Benzenebutanoic acid, α-[(acetylthio)methyl]-4-methyl-γ-oxo-, reference compound] | –
25 | – | 360 nM | 700 nM | – | CC(C)CC(CCC(=O)O)C(=O)c1ccc(-c2ccc(Cl)cc2)cc1 (stereo not drawn) [Example 342] | –
26 | – | 2400 nM | 3800 nM | – | O=C(CCC(CCCc1ccccc1)C(=O)O)c1ccc(-c2ccc(Cl)cc2)cc1 (stereo not drawn) [Example 341, [1,1'-Biphenyl]-4-pentanoic acid, 4'-chloro-δ-oxo-α-(3-phenylpropyl)-] | –
27 | – | 87 nM | 170 nM | – | O=C(CC(CSCCc1ccccc1)C(=O)O)c1ccc(-c2ccc(Cl)cc2)cc1 (stereo not drawn) [Example 205, [1,1'-Biphenyl]-4-butanoic acid, 4'-chloro-γ-oxo-α-[[(2-phenylethyl)thio]methyl]-] | –
